Laboratory results taken from patent publication US20130053347A1, “PRO-DRUGS OF AMARYLLIDACEAE ISOCARBOSTYRIL PRODUCTS AND THEIR USE AGAINST BRAIN TUMORS” (Universite Libre de Bruxelles, priority 2010, published 2013).

Key:
[1] = system: A549 cells grafted directly into the brain of nude mice; assay: NSCLC cells grafted into the brain, survival; type: in vivo, human; conditions: A549 in brain; Taxol 20 mg/kg, Narciclasine 1 mg/kg once per week during 5 consecutive weeks
Protocol: (§1) FIG. 6: anti-tumor effects of Narciclasine versus taxol in human NSCLC (non small cell lung carcinoma) models. The left panel illustrates the lungs of mice bearing lung tumor (tumor tissue is the white nodular one; pink part is the residual normal lung tissue) and hematoxilin eosin staining of the lung tumor (middle) and the brain metastasis that developed into the brain of nude mice after the graft of A549 human NSCLC cells into the lung (lower panel). Anti-tumor effects were evaluated in terms of animal survival when cells are grafted into the lungs (upper right graph) or directly into the brain (right lower panel). Taxol (dose: 20 mg/kg) and Narciclasine (dose: 1 mg/kg) were administered once per week during 5 consecutive weeks.
(§2) We tested also the anti-cancer effects of Narciclasine in non small cell lung carcinoma models (NSCLC). When human NSCLC A549 cells are grafted into the lungs of nude mice, those later develop lung tumors leading after to liver and brain metastases in 80% of the cases (Mathieu A et al, Cancer 2004).

[2] = system: human NSCLC A549 cells grafted into the lungs of nude mice; assay: NSCLC model, cells grafted into the lungs, survival; type: in vivo; conditions: A549 in lungs; Taxol 20 mg/kg, Narciclasine 1 mg/kg once per week during 5 consecutive weeks
Protocol: as §1, §2

[3] = system: VM-48 human brain metastatic melanoma cells grafted into the brain of nude mice; assay: melanoma brain metastasis model, survival; type: in vivo; conditions: VM-48 in brain; intravenously 1 mg/kg twice a week during 3 consecutive weeks
[4] = system: human melanoma VM-21 cells grafted subcutaneously; assay: subcutaneous melanoma model, survival; type: in vivo; conditions: VM-21 subcutaneous, nude mice; Narciclasine per os
Protocol: FIG. 7: anti-tumor effects of Narciclasine in human melanoma models. The left panel illustrates typical hematoxilin eosin staining of subcutaneous tumor and lung metastasis developed when VM-21 human melanoma cells are grafted subcutaneously in nude mice and their corresponding survival analysis. Narciclasine was administered per os while dacarbazine was administered intra-peritoneally. Doses and schedules appear on the graphs (ai X bw meaning “a” administrations per week during “b” weeks). The right panel illustrates typical hematoxilin eosin staining of human melanoma brain tumor developed into the brain when VM-48 human brain metastatic melanoma cells are grafted into the brain of nude mice and their corresponding survival analysis. Narciclasine and temozolomide (TMZ) were administered per os. Doses and schedules appear on the graphs (same legend than left panel).
Similarly, we grafted subcutaneously human melanoma VM-21 cells. This graft leads to tumor formation and further lung metastases as illustrated in FIG. 7. […] VM-48 cells have been isolated from a human brain metastasis of melanoma. We grafted those cells in their original environment, i.e. the brain to mimic human melanoma brain metastasis (FIG. 7).

[5] = system: cancer cells; conditions: cited from earlier work
[6] = cited from earlier work
[7] = system: mice; conditions: cited from earlier work
[8] = system: Hs683 human glioblastoma cells grafted into the brain of nude mice; assay: human glioblastoma orthotopic model, survival; type: in vivo; conditions: 1 mg/kg once or twice per week during 5 consecutive weeks, intravenous or oral; two glioblastoma models (Hs683; GL-19 in FIG. 5)
Protocol: FIG. 5: anti-tumor effects of Narciclasine versus temozolomide in human primary brain tumor models. A and B: hematoxilin eosin staining of the brain tumors that developed into the brain of nude mice after intracranial graft of Hs683 and GL-19 human glioblastoma cells (NB: normal brain). Anti-tumor effects were evaluated in terms of animal survival in C and D. TMZ: temozolomide; schedule of administration is mentioned between brackets (“aXb” meaning “a” administrations per week during “b” weeks).
We evaluated the anti-cancer effects of Narciclasine at non toxic dose in two human glioblastoma (primary brain tumors) models (Hs683-model) that we grafted orthotopically directly into the brain of nude mice. […] The therapeutic schedule used here is even lower (one or two injections per week instead of 5 per week) and the administration route was intravenous or oral. […] The few promising NCI results have been obtained at doses higher than 1 mg/kg administered intraperitoneally or subcutaneously.

Row | SMILES | survival benefits [1] | survival of the animals [2] | animal survival [3] | survival benefit [4] | IC50 [5] | plasmatic concentrations ([6]; 5 mg/kg dose, for few hours only) | oral bioavailability ([6]; mouse, in vivo, po) | maximal dose that can be administered without being toxic ([7]; mice) | safe chronical dose ([7]; mice) | toxicity ([7]; rodents, 1 mg/kg 5 times per week during three weeks at least) | therapeutic benefit in terms of survival [8]
1 | CC(=O)O[C@H]1C(=O)[C@@]2(C)[C@H]([C@H](OC(=O)c3ccccc3)[C@]3(O)C[C@H](OC(=O)[C@H](O)[C@@H](NC(=O)c4ccccc4)c4ccccc4)C(C)=C1C3(C)C)[C@]1(OC(C)=O)CO[C@@H]1C[C@@H]2O [taxol] | became inefficient | did significantly |  |  |  |  |  |  |  |  | 
2 | O=C1N[C@@H]2C(=C[C@H](O)[C@@H](O)[C@H]2O)c2cc3c(c(O)c21)OCO3 [Narciclasine] | highly and significantly effective | did not bring any increase in the survival | significant increase in terms of animal survival | could not bring any survival benefit | 50 nM | > 50 nM | 32% | around 1 mg/kg | 1 mg/kg | without any toxicity | significant and comparable therapeutic benefits
